The assay in a line: healing test: topical 4-hydroxy-androstenedione cream applied to the breasts of patients with mastalgia. It is filed as in vivo, human. The source says:
Treatments acting with 4-hydroxy-androstenedione for mastalgia syndrome are described, wherein instead of 4-hydroxy-androstenedione, other aromatase inhibitors may be used.
Findings: Tension-related pains in both breasts occurring 3 to 5 days before each menstruation, apparently bundled shooting into the breast nipples. Then slowly decreasing pains, symptoms and signs and tension states during the menstruation period until about the 10th day after onset of menstruation.
A cream treated with 0.5 wt. % of 4-hydroxy-androstenedione was used (0.5% of 4OH-androstenedione introduced into 100 ml of ash-based cream). 4 g were administered daily, and specifically 2 g applied externally to each breast and carefully massaged in.
Start of healing test about 3 weeks before the period.
Continuation of the healing test with daily administration of 4-OH-androstenedione cream 0.5% strength.
Findings: For years, severe swelling and tension feeling occurring in each case 3-5 days before menstruation with diffuse pain symptoms and signs radiating into the thorax, which is almost unbearable until the onset of menstruation. For years, unable to work 1-3 days per month due to these pains. Disappearance of symptoms and signs only on 8th-12th day after onset of menstruation.
Healing test using 1% strength 4-OH-androstenedione cream (1 g of 4-OH-androstenedione introduced into 100 ml of ash-based cream).
Dose 1×daily 4 g, in each case 2 g applied to each breast.
The start of the healing test took place about 2 weeks before onset of menstruation.
Continuation of the healing test using 0.5% strength 4-OH-androstenedione cream (0.5 g of 4-OH-androstenedione introduced into 100 ml of ash-based cream) 4 g daily, that is 2 g applied to each breast.

Setting [1] is: Example 2, 1% strength cream, 1x daily 4 g, subsequent period 2.
Where [2] appears, read: Example 2, continuation with 0.5% strength cream, 4 g daily, subsequent periods.

With `C[C@]12CCC(=O)C(O)=C1CC[C@@H]1[C@@H]2CC[C@]2(C)C(=O)CC[C@@H]12` [4-hydroxy-androstenedione, 4-hydroxyandrostenedione], the tension pain entry (Example 1, person, 0.5 wt. % cream, 4 g daily (2 g each breast), first subsequent period) is “Significantly reduced tension pain”. Further, the pain entry (Example 1, 0.5% strength cream daily, second subsequent period) is reported as “complete freedom from pain”. Moreover, the “course of symptoms and signs” value (Example 1, 0.5 wt. % cream, 4 g daily, first subsequent period) was “symptoms and signs subsided more rapidly”. Moreover, the “time to pain-free after start of menstruation” value (Example 1, 0.5 wt. % cream, 4 g daily, first subsequent period (before treatment until about the 10th day)) came to 5 days. Also, where the note is “Example 2, person, 1% strength cream, 1x daily 4 g, subsequent period 1”, the course of mastalgia entry is recorded as “somewhat blander course”. Besides, the inability to work (Example 2, 1% strength cream, 1x daily 4 g, subsequent period 1 (before treatment 1-3 days per month)) is 1 days. Moreover, under setting [1], the inability to work result was “no inability to work”; the “pain symptoms and signs” value is “considerably lower pain symptoms and signs”; the “swelling and tension feeling” value was “Significantly lower swelling and tension feeling”. In addition, under setting [2], the “mastopathy-related inability to work” value was “no mastopathy-related inability to work”; the pain entry is “practically pain-free”; the “swelling and tension feelings” value was “Hardly any swelling and tension feelings”.

The values are drawn from patent US20040018991A1, “Topical treatment for mastalgia” (priority 2000, published 2004).
